From patent publication US7744910B2, “Compounds and compositions for delivering active agents” (Emisphere Technologies, Inc., priority 1998, dated 2010) come the findings set out here.

Series [1] in a line: Intracolonic delivery of heparin in rats; heparin activity by activated partial thromboplastin time (APTT). Type of series: in vivo, Sprague-Dawley rats. As to conditions: IC. How it is done:
Intracolonic dosing (IC) compositions containing delivery agent compound and heparin sodium USP in 25% aqueous propylene glycol were prepared by mixing. […] Typically, compound and heparin powders were mixed, 25% aqueous propylene glycol was added, NaOH solution was added, the contents sonicated, then diluted to a volume of 3.0. pH was checked and adjusted if necessary to pH=7-8.
The dosing solutions were administered to fasted rats at a volume dose of 1 ml/kg. Blood samples were collected by cardiac puncture following the administration of ketamine (44 mg/kg). Heparin activity was determined utilizing the activated partial thromboplastin time (APTT) according to the method of Henry, J. B., Clinical Diagnosis and Management by Laboratory Methods; Philadelphia, Pa.; W. B. Saunders (1979).

The nature of series [2]: PTH delivery in rats, oral (PO) and intracolonic (IC); serum PTH by radioimmunoassay. Type of series: in vivo, Sprague-Dawley rats. The procedure: Oral gavage (PO) or intracolonic (IC) dosing solutions of delivery agent compound and parathyroid hormone residues 1-34 (PTH) (residues 1-38 for the solution with compound 103) were prepared. […] The final dosing solutions were prepared by mixing the compound solution with a PTH stock solution (typically having a concentration of 5 mg PTH/ml) and diluting to the desired volume (usually 3.0 ml).
The rats were administered one of the dosing solutions at 1 ml/kg for PO or 0.5 ml/kg for IC. Blood samples were collected serially from the tail artery for serum determination of PTH concentration. Serum PTH concentrations were quantified by a PTH radioimmunoassay kit (Kit # RIK 6101 from Peninsula Laboratories, Inc., San Carlos, Calif.).

The nature of series [3]: Oral delivery of rhGH in rats; serum rhGH by immunoassay. Type of series: in vivo, Sprague-Dawley rats. The procedure:
Oral gavage (PO) dosing solutions of delivery agent compound and rhGH in phosphate buffer were prepared. […] The final dosing solutions were prepared by mixing the compound solution with an rhGH stock solution (typically having a concentration of 15 mg rhGH/ml) and diluting to the desired volume (usually 3.0 ml).
The rats were administered 1 ml/kg of the dosing solution. Blood samples were collected serially from the tail artery for determination of serum rhGH concentrations. Serum rhGH concentrations were quantified by an rhGH immunoassay test kit (Kit # KIF4015 from Genzyme Corporation Inc., Cambridge, Mass.).

Series [4] in a line: Oral delivery of salmon calcitonin (sCT) in rats; serum sCT by EIA. As to conditions: compound dose 50 mg/kg, sCT dose 25 μg/kg, modified EIA protocol.
Experimental: (§1) Oral dosing (PO) compositions of delivery agent compound and salmon calcitonin (sCT) in water were prepared by mixing. 450 mg of compound was added to 2.0 ml of water. Either the sodium salt of the compound was used or the free acid was converted to the sodium salt by stirring the resultant solution and adding one equivalent of sodium hydroxide (1.0 N) and diluting with water. 90 μg sCT was added to the solution. Water was then added to bring the total volume to 3.0 ml. […] (For compounds 118 and 123, the solutions were diluted to 6.0 ml and the volume dose was doubled.) The total sCT concentration was 30 μg/ml.
(§2) Male Sprague-Dawley rats weighing between 200-25.0 g were fasted for 24 hours and were administered ketamine (44 mg/kg) and chlorpromazine (1.5 mg/kg) 15 minutes prior to dosing. The rats were administered 1 ml/kg of dosing solution (2 ml/kg for compounds 118 and 123). Blood samples were collected serially from the tail artery. Serum sCT was determined by testing with an EIA kit (Kit # EIAS-6003 from Peninsula Laboratories, Inc., San Carlos, Calif.). The standard protocol from the kit was modified for compounds 104 and 105 as follows: incubated with 50 μl peptide antibody for 2 hours with shaking in the dark, washed the plate, added serum and biotinylated peptide and diluted with 4 ml buffer, and shook overnight in the dark.
For series [5] the following is noted: rat, in vivo, po, 150 mg/kg.
Experimental: as §1, §2
Where [6] appears, read: compound dose 50 mg/kg, heparin dose 25 mg/kg.
The mark [7] stands for this setting: PO, compound dose 300 mg/kg, PTH (1-34) dose 100 μg/kg.
Where [8] appears, read: compound dose 300 mg/kg, rhGH dose 6 mg/kg.
Setting [9] is: PO, compound dose 100 mg/kg, PTH (1-34) dose 200 μg/kg.
[10] abbreviates: compound dose 200 mg/kg, rhGH dose 3 mg/kg.

Values joined by “and” are separate entries in the source; they are usually repeats but may differ in a detail not shown here. Identical values can stand only once. Like-named read-outs stand apart in the source and are kept apart here.

As to `Cc1ccccc1C(=O)NCCCCCC(=O)O` [Compound 101], in series [1] (setting [6]), the “Mean Peak APTT” value was determined as 26 ± 5 s.

`O=C(O)CCc1ccc(F)c(NC(=O)c2ccccc2O)c1` [Compound 60]: in series [1] (setting [6]), the “Mean Peak APTT” value was found to be 71 ± 43 s.

As for `O=C(O)CCCCCCCCCNC(=O)c1ccccc1` [Compound 100], the “Mean Peak APTT” value in series [1] (setting [6]) was determined as 31 ± 8 s.

On to `O=C(O)CCNC(=O)c1ccccc1O` [Compound 103], for which, in series [2] (IC, compound dose 100 mg/kg, PTH residues 1-38 dose 25 μg/kg), the “Mean Peak Serum PTH” value came to 38.53 ± 30.9 pg/mL. In series [1] (setting [6]), the “Mean Peak APTT” value amounted to 21.9 ± 2.0 s.

Take `Nc1ccc(F)cc1C(=O)Nc1ccc(CCCC(=O)O)cc1` [Compound 3]: the “Mean Peak Serum PTH” value in series [2] (setting [7]) amounted to 222 ± 155 pg/mL. The “Mean Peak Serum [rhGH]” value in series [3] (setting [8]) was found to be 72 ± 45 ng/mL.

As to `O=C(O)CCCNC(=O)c1cc(Cl)ccc1O` [Compound 105], the “Serum sCT (pg/ml) ± SD (SE)” value in series [4] was 583 ± 140 pg/mL.

As to `Cc1ccccc1C(=O)NCCCCCCCCCCCC(=O)O` [Compound 95], in series [1] (setting [6]), the “Mean Peak APTT” value stood at 30 ± 2 s.

`COc1ccc(C(=O)NCCCC(=O)O)c(O)c1` [Compound 106]: in series [1] (setting [6]), the “Mean Peak APTT” value was 48 ± 16.9 s and 27.7 ± 12.6 s.

With `O=C(O)CCCCCCCCCCNC(=O)c1ccccc1F` [Compound 88], the “Mean Peak APTT” value in series [1] (setting [6]) came to 59 ± 47 s.

For `Cc1cc(F)cc(C(=O)NCCCCCCCC(=O)O)c1O` [Compound 56], the “Mean Peak APTT” value in series [1] (setting [6]) amounted to 91 ± 75 s.

Turning to `Cc1ccccc1C(=O)NCCCCCCCCCC(=O)O` [Compound 99], in series [1] (setting [6]), the “Mean Peak APTT” value was 34 ± 7 s.

On to `O=C(O)CCCCCCCCCCCNC(=O)c1ccccc1F` [Compound 97], for which the “Mean Peak APTT” value in series [1] (setting [6]) is 33 ± 10 s.

Consider `O=C(O)CCCCCC(=O)Nc1cc(Cl)ccc1O` [Compound 120], for which, in series [1] (setting [6]), the “Mean Peak APTT” value was 42 ± 34 s.

In the case of `COc1ccccc1C(=O)NCCCCCCCCCCCC(=O)O` [Compound 96], in series [1] (setting [6]), the “Mean Peak APTT” value turned out to be 72 ± 63 s.

Consider `COc1ccccc1C(=O)NCCCCCCCCCC(=O)O` [Compound 94], for which, in series [2] (setting [9]), the “Mean Peak Serum PTH” value was 17 ± 38 pg/mL. Further, the “Mean Peak APTT” value in series [1] (setting [6]) is 50 ± 28 s.

As for `O=C(O)CCCNC(=O)c1ccccc1F` [Compound 92], the “Mean Peak Serum PTH” value in series [2] (setting [9]) is 303 ± 427 pg/mL. In addition, in series [1] (setting [6]), the “Mean Peak APTT” value amounted to 22 ± 2 s.

As for `O=C(O)CCCCCCCNC(=O)c1cc(F)ccc1O` [Compound 54], the “Mean Peak Serum [rhGH]” value in series [3] (setting [10]) is 48 ± 33 ng/mL. Further, the “Mean Peak APTT” value in series [1] (setting [6]) came to 124 ± 137 s.

On to `Nc1ccc(Cl)cc1C(=O)NCCCCCCCC(=O)O` [Compound 40], for which, in series [3] (setting [8]), the “Mean Peak Serum [rhGH]” value was 42 ± 80 ng/mL.

As for `O=C(O)CCCCCCCCCCNC(=O)c1ccccc1` [Compound 87], the “Mean Peak APTT” value in series [1] (setting [6]) is 21 ± 1 s and 23 ± 3 s.

Consider `O=C(O)CCCCCCCNC(=O)c1cc(F)cc(F)c1O` [Compound 41], for which the “Mean Peak APTT” value in series [1] (setting [6]) stood at 41 ± 26 s.

As to `O=C(O)CCCCCCCCCNC(=O)c1ccccc1F` [Compound 85], the “Mean Peak APTT” value in series [1] (setting [6]) amounted to 27 ± 4 s.

Take `O=C(O)CNC(=O)c1ccccc1F` [Compound 113]: the “Mean Peak APTT” value in series [1] (setting [6]) is 20.4 s.

For `O=C(O)CCCc1ccc(Nc2cc(=O)oc3ccccc23)cc1` [Compound 72], in series [1] (setting [6]), the “Mean Peak APTT” value came to 50 ± 18 s.

For `O=C(O)CCCCCCCNC(=O)Cc1ccc(O)cc1` [Compound 46], the “Mean Peak APTT” value in series [1] (setting [6]) is 52 ± 34 s.

On to `COc1ccccc1C(=O)NCCCC(=O)O` [Compound 90], for which the “Mean Peak Serum PTH” value in series [2] (setting [9]) came out at 14 ± 21 pg/mL. The “Mean Peak APTT” value in series [1] (setting [6]) is 26 ± 7 s.

As to `O=C(O)CCCCCCCNC(=O)c1cc(Cl)cc(F)c1O` [Compound 45], the “Mean Peak Serum [rhGH]” value in series [3] (setting [10]) came out at 49 ± 56 ng/mL.

In the case of `CNc1ccccc1C(=O)Nc1ccc(CCCC(=O)O)cc1` [Compound 10], the “Mean Peak Serum PTH” value in series [2] (setting [7]) was 420 ± 335 pg/mL. Further, in series [3] (setting [10]), the “Mean Peak Serum [rhGH]” value amounted to 43 ± 65 ng/mL.

With `CNc1ccccc1C(=O)Nc1ccc(CCC(=O)O)cc1` [Compound 7], in series [1] (setting [6]), the “Mean Peak APTT” value was 59 ± 41 s.

As for `O=C(O)CNC(=O)c1ccccc1` [Compound 110], the “Mean Peak APTT” value in series [1] (setting [6]) was 26.5 ± 4.7 s and 23.4 ± 0.7 s.

For `O=C(O)CCCCCNC(=O)c1ccccc1` [Compound 89], the “Mean Peak Serum PTH” value in series [2] (setting [9]) is 27 ± 61 pg/mL. The “Mean Peak APTT” value in series [1] (setting [6]) was 33 ± 7 s.

Turning to `Cc1ccccc1C(=O)NCCCC(=O)O` [Compound 91], the “Mean Peak Serum PTH” value in series [2] (setting [9]) stood at 5 ± 12 pg/mL. For the same compound, in series [1] (setting [6]), the “Mean Peak APTT” value came out at 24 ± 4 s.

With `Cc1cc(Cl)cc(C(=O)NCCCCCCCC(=O)O)c1O` [Compound 55], the “Mean Peak APTT” value in series [1] (setting [6]) worked out at 125 ± 195 s.

Turning to `Cc1ccccc1C(=O)NCC(=O)O` [Compound 111], the “Mean Peak APTT” value in series [1] (setting [6]) was 24.4 ± 3.3 s.

Consider `COc1ccc(C(=O)Nc2ccc(CCCC(=O)O)cc2)c(O)c1` [Compound 104], for which the “Mean Peak Serum PTH” value in series [2] (setting [9]) is listed as 286.35 ± 191.58 pg/mL. In series [4], the “Serum sCT (pg/ml) ± SD (SE)” value is 287 ± 104 pg/mL.

Turning to `COc1ccc(C(=O)NCCCCCCCCCCCC(=O)O)c(O)c1` [Compound 109], the “Mean Peak APTT” value in series [1] (setting [6]) is 24.2 ± 1.7 s.

Consider `COc1ccc(C(=O)NCC(=O)O)c(O)c1` [Compound 102], for which the “Mean Peak APTT” value in series [1] (setting [6]) was 24.8 ± 0.9 s and 24.7 ± 6.5 s.

With `O=C(O)CCCCCNC(=O)c1ccccc1F` [Compound 86], in series [2] (setting [9]), the “Mean Peak Serum PTH” value is 0 pg/mL. Moreover, the “Mean Peak APTT” value in series [1] (setting [6]) is 24 ± 1 s and 31 ± 11 s.

As for `O=C(O)CCCC(=O)Nc1cc(Cl)ccc1O` [Compound 119], the “Serum sCT (pg/ml) ± SD (SE)” value in series [5] was 95 ± 119 (53) pg/ml.

On to `Cc1cc(C)c(O)c(C(=O)Nc2ccc(CCCC(=O)O)cc2)c1` [Compound 14], for which the “Mean Peak APTT” value in series [1] (setting [6]) was 54 ± 21 s.

As for `O=C(O)CCCCCCCNC(=O)c1c(O)cccc1Cl` [Compound 51], the “Mean Peak APTT” value in series [1] (setting [6]) was 111 ± 49 s.

For the compound `O=C(O)CCCCCCCNC(=O)c1cc(Cl)cc(Br)c1O` [Compound 48], the “Mean Peak APTT” value in series [1] (setting [6]) came to 75 ± 18 s.

With `O=C(O)CCCCCCCCC(=O)Nc1cc(Cl)ccc1O` [Compound 123], the “Serum sCT (pg/ml) ± SD (SE)” value in series [5] was 0 pg/mL.

With `COc1ccc(C(=O)NCCCCCCCCCC(=O)O)c(O)c1` [Compound 108], the “Mean Peak APTT” value in series [1] (setting [6]) amounted to 72.9 ± 28.9 s.

As to `O=C(O)CCCCCCCCCCCNC(=O)c1ccccc1` [Compound 98], the “Mean Peak APTT” value in series [1] (setting [6]) came out at 25 ± 5 s.

As to `COc1ccccc1C(=O)NCC(=O)O` [Compound 112], the “Mean Peak APTT” value in series [1] (setting [6]) amounted to 28.7 ± 11.5 s.

Take `O=C(O)CCCCCCCC(=O)Nc1cc(Cl)ccc1O` [Compound 122]: the “Serum sCT (pg/ml) ± SD (SE)” value in series [5] is on record as 187 ± 79 (36) pg/ml.

For the compound `O=C(O)CCCNC(=O)c1ccccc1` [Compound 93], the “Mean Peak Serum PTH” value in series [2] (setting [9]) is recorded as 343 ± 155 pg/mL. Also, the “Mean Peak APTT” value in series [1] (compound dose 25 mg/kg, heparin dose 50 mg/kg) stood at 22 ± 0 s.

As to `COc1ccc(C(=O)NCCCCCC(=O)O)c(O)c1` [Compound 107], in series [1] (setting [6]), the “Mean Peak APTT” value was 26.2 ± 6.1 s.
